Measurements reported in ChEMBL document CHEMBL2440076, “New triarylpyrazoles as broad-spectrum anticancer agents: design, synthesis, and biological evaluation” (Eur J Med Chem, 2013).

Tests used:
Type in all cases: functional
BT-549 = test: Growth inhibition of human BT549 cells assessed as cell growth at 3X10'-9 M after 48 hrs by sulforhodamine B assay; settings: BT-549, 48 h, read-out: Activity
HOP-92 [1] = test: Growth inhibition of human HOP92 cells assessed as cell growth at 3X10'-7 M after 48 hrs by sulforhodamine B assay; settings: HOP-92, 48 h, read-out: Activity
DU-145 = test: Growth inhibition of human DU145 cells assessed as cell growth at 3X10'-9 M after 48 hrs by sulforhodamine B assay; settings: DU-145, 48 h, read-out: Activity
HT-29 [2] = test: Growth inhibition of human HT-29 cells assessed as cell growth at 3X10'-5 M after 48 hrs by sulforhodamine B assay; settings: HT-29, 48 h, read-out: Activity
NCI-H226 [3] = test: Growth inhibition of human NCI-H226 cells assessed as cell growth at 3X10'-9 M after 48 hrs by sulforhodamine B assay; settings: NCI-H226, 48 h, read-out: Activity
TK-10 = test: Growth inhibition of human TK10 cells assessed as cell growth at 3X10'-9 M after 48 hrs by sulforhodamine B assay; settings: TK-10, 48 h, read-out: Activity
HCT-15 = test: Growth inhibition of human HCT15 cells assessed as cell growth at 3X10'-9 M after 48 hrs by sulforhodamine B assay; settings: HCT-15, 48 h, read-out: Activity
NCI-H460 [4] = test: Growth inhibition of human NCI-H460 cells assessed as cell growth at 3X10'-7 M after 48 hrs by sulforhodamine B assay; settings: NCI-H460, 48 h, read-out: Activity
SK-MEL-28 [5] = test: Growth inhibition of human SK-MEL-28 cells assessed as cell growth at 3X10'-7 M after 48 hrs by sulforhodamine B assay; settings: SK-MEL-28, 48 h, read-out: Activity
NCI-H460 [6] = test: Growth inhibition of human NCI-H460 cells assessed as cell growth at 3X10'-9 M after 48 hrs by sulforhodamine B assay; settings: NCI-H460, 48 h, read-out: Activity
T47D [7] = test: Growth inhibition of human T47D cells assessed as cell growth at 3X10'-5 M after 48 hrs by sulforhodamine B assay; settings: read-out: Activity
Malme-3M = test: Growth inhibition of human MALME-3M cells assessed as cell growth at 3X10'-6 M after 48 hrs by sulforhodamine B assay; settings: read-out: Activity
SN12C = test: Growth inhibition of human SN12C cells assessed as cell growth at 3X10'-7 M after 48 hrs by sulforhodamine B assay; settings: read-out: Activity
SK-MEL-5 = test: Growth inhibition of human SK-MEL-5 cells assessed as cell growth at 3X10'-8 M after 48 hrs by sulforhodamine B assay; settings: SK-MEL-5, 48 h, read-out: Activity
LOX IMVI = test: Growth inhibition of human LOXIMVI cells assessed as cell growth at 3X10'-6 M after 48 hrs by sulforhodamine B assay; settings: read-out: Activity
MDA-MB-435 [8] = test: Growth inhibition of human MDA-MB-435 cells assessed as cell growth at 3X10'-7 M after 48 hrs by sulforhodamine B assay; settings: MDA-MB-435, 48 h, read-out: Activity
A498 = test: Growth inhibition of human A498 cells assessed as cell growth at 3X10'-6 M after 48 hrs by sulforhodamine B assay; settings: A498, 48 h, read-out: Activity
MDA-MB-435 [9] = test: Growth inhibition of human MDA-MB-435 cells assessed as cell growth at 3X10'-9 M after 48 hrs by sulforhodamine B assay; settings: MDA-MB-435, 48 h, read-out: Activity
IGROV-1 [10] = test: Growth inhibition of human IGROV1 cells assessed as cell growth at 3X10'-7 M after 48 hrs by sulforhodamine B assay; settings: IGROV-1, 48 h, read-out: Activity
SW-620 [11] = test: Growth inhibition of human SW620 cells assessed as cell growth at 3X10'-5 M after 48 hrs by sulforhodamine B assay; settings: SW-620, 48 h, read-out: Activity
SR = test: Growth inhibition of human SR cells assessed as cell growth at 3X10'-9 M after 48 hrs by sulforhodamine B assay; settings: read-out: Activity
NCI-H226 [12] = test: Growth inhibition of human NCI-H226 cells assessed as cell growth at 3X10'-8 M after 48 hrs by sulforhodamine B assay; settings: NCI-H226, 48 h, read-out: Activity
U-251 = test: Growth inhibition of human U251 cells assessed as cell growth at 3X10'-6 M after 48 hrs by sulforhodamine B assay; settings: U-251, 48 h, read-out: Activity
SW-620 [13] = test: Growth inhibition of human SW620 cells assessed as cell growth at 3X10'-7 M after 48 hrs by sulforhodamine B assay; settings: SW-620, 48 h, read-out: Activity
MDA-MB-435 [14] = test: Growth inhibition of human MDA-MB-435 cells assessed as cell growth at 3X10'-8 M after 48 hrs by sulforhodamine B assay; settings: MDA-MB-435, 48 h, read-out: Activity
NCI-H322M = test: Growth inhibition of human NCI-H322M cells assessed as cell growth at 3X10'-7 M after 48 hrs by sulforhodamine B assay; settings: read-out: Activity
SNB-75 [15] = test: Growth inhibition of human SNB75 cells assessed as cell growth at 3X10'-7 M after 48 hrs by sulforhodamine B assay; settings: SNB-75, 48 h, read-out: Activity
T47D [16] = test: Growth inhibition of human T47D cells assessed as cell growth at 3X10'-8 M after 48 hrs by sulforhodamine B assay; settings: read-out: Activity
SK-MEL-28 [17] = test: Growth inhibition of human SK-MEL-28 cells assessed as cell growth at 3X10'-9 M after 48 hrs by sulforhodamine B assay; settings: SK-MEL-28, 48 h, read-out: Activity
HOP-92 [18] = test: Growth inhibition of human HOP92 cells assessed as cell growth at 3X10'-8 M after 48 hrs by sulforhodamine B assay; settings: HOP-92, 48 h, read-out: Activity
SNB-75 [19] = test: Growth inhibition of human SNB75 cells assessed as cell growth at 3X10'-9 M after 48 hrs by sulforhodamine B assay; settings: SNB-75, 48 h, read-out: Activity
[20] = Growth inhibition of human NCI-ADR-RES cells assessed as cell growth at 3X10'-5 M after 48 hrs by sulforhodamine B assay; settings: read-out: Activity
SK-MEL-28 [21] = test: Growth inhibition of human SK-MEL-28 cells assessed as cell growth at 3X10'-8 M after 48 hrs by sulforhodamine B assay; settings: SK-MEL-28, 48 h, read-out: Activity
HCT-116 = test: Growth inhibition of human HCT116 cells assessed as cell growth at 3X10'-6 M after 48 hrs by sulforhodamine B assay; settings: HCT-116, 48 h, read-out: Activity
HT-29 [22] = test: Growth inhibition of human HT-29 cells assessed as cell growth at 3X10'-7 M after 48 hrs by sulforhodamine B assay; settings: HT-29, 48 h, read-out: Activity
IGROV-1 [23] = test: Growth inhibition of human IGROV1 cells assessed as cell growth at 3X10'-5 M after 48 hrs by sulforhodamine B assay; settings: IGROV-1, 48 h, read-out: Activity
[24] = Growth inhibition of human NCI-ADR-RES cells assessed as cell growth at 3X10'-7 M after 48 hrs by sulforhodamine B assay; settings: read-out: Activity
NCI-H23 = test: Growth inhibition of human NCI-H23 cells assessed as cell growth at 3X10'-6 M after 48 hrs by sulforhodamine B assay; settings: NCI-H23, 48 h, read-out: Activity

SMILES | growth at 0.003 µM (BT-549) [%] | growth at 0.3 µM (HOP-92 [1]) [%] | growth at 0.003 µM (DU-145) [%] | growth at 30 µM (HT-29 [2]) [%] | growth at 0.003 µM (NCI-H226 [3]) [%] | growth at 0.003 µM (TK-10) [%] | growth at 0.003 µM (HCT-15) [%] | growth at 0.3 µM (NCI-H460 [4]) [%] | growth at 0.3 µM (SK-MEL-28 [5]) [%] | growth at 0.003 µM (NCI-H460 [6]) [%] | growth at 30 µM (T47D [7]) [%] | growth at 3 µM (Malme-3M) [%] | growth at 0.3 µM (SN12C) [%] | growth at 0.03 µM (SK-MEL-5) [%] | growth at 3 µM (LOX IMVI) [%] | growth at 0.3 µM (MDA-MB-435 [8]) [%] | growth at 3 µM (A498) [%] | growth at 0.003 µM (MDA-MB-435 [9]) [%] | growth at 0.3 µM (IGROV-1 [10]) [%] | growth at 30 µM (SW-620 [11]) [%] | also measured
COc1cc(-c2nn(-c3cccc(NC(=O)c4ccc(Cl)c(C(F)(F)F)c4)c3)cc2-c2ccncc2)ccc1Cl | 96 | 73 | 100 | 3 | 92 | 90 | 99 | 98 | 95 | 103 | 18 | 20 | 93 | 97 | 39 | 87 | 47 | 95 | 95 | 24 | growth at 0.003 µM (SR): 99%; growth at 0.03 µM (NCI-H226 [12]): 92%; growth at 3 µM (U-251): 49%; growth at 0.3 µM (SW-620 [13]): 91%; growth at 0.03 µM (MDA-MB-435 [14]): 97%; growth at 0.3 µM (NCI-H322M): 92%; growth at 0.3 µM (SNB-75 [15]): 77%; growth at 0.03 µM (T47D [16]): 96%; growth at 0.003 µM (SK-MEL-28 [17]): 99%; growth at 0.03 µM (HOP-92 [18]): 85%; growth at 0.003 µM (SNB-75 [19]): 86%; growth at 30 µM [20]: -19%; growth at 0.03 µM (SK-MEL-28 [21]): 100%; growth at 3 µM (HCT-116): 44%; growth at 0.3 µM (HT-29 [22]): 93%; growth at 30 µM (IGROV-1 [23]): 8%; growth at 0.3 µM [24]: 91%; growth at 3 µM (NCI-H23): 59%
O=C(Nc1cccc(-n2cc(-c3ccncc3)c(-c3ccc(Cl)c(O)c3)n2)c1)Nc1ccc(Cl)c(Cl)c1 | 99 | 86 | 104 | 3 | 98 | 96 | 102 | 95 | 97 | 108 | -9 | 10 | 101 | 96 | 3 | 91 | -1 | 95 | 107 | 1 | growth at 0.003 µM (SR): 91%; growth at 0.03 µM (NCI-H226 [12]): 97%; growth at 3 µM (U-251): 25%; growth at 0.3 µM (SW-620 [13]): 101%; growth at 0.03 µM (MDA-MB-435 [14]): 96%; growth at 0.3 µM (NCI-H322M): 113%; growth at 0.3 µM (SNB-75 [15]): 83%; growth at 0.03 µM (T47D [16]): 95%; growth at 0.003 µM (SK-MEL-28 [17]): 102%; growth at 0.03 µM (HOP-92 [18]): 93%; growth at 0.003 µM (SNB-75 [19]): 88%; growth at 30 µM [20]: 6%; growth at 0.03 µM (SK-MEL-28 [21]): 102%; growth at 3 µM (HCT-116): 13%; growth at 0.3 µM (HT-29 [22]): 110%; growth at 30 µM (IGROV-1 [23]): 5%; growth at 0.3 µM [24]: 102%; growth at 3 µM (NCI-H23): 11%
O=C(Nc1cccc(-n2cc(-c3ccncc3)c(-c3ccc(Cl)c(O)c3)n2)c1)Nc1ccc(Cl)c(C(F)(F)F)c1 | 102 | 55 | 101 | -63 | 88 | 101 | 98 | 94 | 95 | 103 | 10 | -32 | 91 | 94 | -71 | 86 | 24 | 97 | 85 | -43 | growth at 0.003 µM (SR): 106%; growth at 0.03 µM (NCI-H226 [12]): 86%; growth at 3 µM (U-251): -61%; growth at 0.3 µM (SW-620 [13]): 105%; growth at 0.03 µM (MDA-MB-435 [14]): 94%; growth at 0.3 µM (NCI-H322M): 95%; growth at 0.3 µM (SNB-75 [15]): 74%; growth at 0.03 µM (T47D [16]): 103%; growth at 0.003 µM (SK-MEL-28 [17]): 103%; growth at 0.03 µM (HOP-92 [18]): 76%; growth at 0.003 µM (SNB-75 [19]): 93%; growth at 30 µM [20]: -1%; growth at 0.03 µM (SK-MEL-28 [21]): 97%; growth at 3 µM (HCT-116): 4%; growth at 0.3 µM (HT-29 [22]): 93%; growth at 30 µM (IGROV-1 [23]): -47%; growth at 0.3 µM [24]: 90%; growth at 3 µM (NCI-H23): 1%
